Measurements from ChEMBL document CHEMBL3507680, “University of Dundee, Gates Library screen for HepG2 cell viability”.

Assay: Human HepG2 cell viability assay in 384 well format
Format: toxicity, cell-based
Set-up: dose 125 nL, time 70.5 hour; cytotoxicity at 70.5 h: concentration not given beside the values
Details: HepG2 cells, read-out: Inhibition

SMILES	cytotoxicity at 70.5 h
CC[C@H]1CN2CC[C@H]1C[C@@H]2CNCc1ccc(OC(F)(F)F)cc1	-7.22%
CN(C)[C@H]1C[C@@H](Cc2cc(-c3ccc(F)cc3)on2)C1(C)C	-0.292%
COc1ccc(CN2C[C@@H]3OCC(=O)N(CC(N)=O)[C@@H]3C2)cc1	2.86%
O=C(c1cccnc1)N1C[C@@H]2OCC(=O)N(Cc3cccnc3)[C@@H]2C1	-3.03%
CC(C)NC(=O)NC[C@H]1C[C@@H]2CCN1C[C@@H]2CN(C)c1ccccc1	-0.173%
Cc1nn(-c2ccccn2)c(C)c1[C@@H]1C=C[C@@H](NC(=O)NC(C)C)C1	0.445%
CCNC(=O)N1C[C@@H]2OCC(=O)N(Cc3cccnc3)[C@@H]2C1	-1.41%
CC(=O)Nc1ccc([C@@H](O)[C@H]2COCC(=O)N2CC(C)C)cc1	1.58%
COCC(=O)Nc1ccc([C@@H](O)[C@H]2COCC(=O)N2C)cc1	-1.45%
COC(=O)[C@H]1CN(C(=O)NC(C)C)CCN1C(=O)C1CCCCC1	10.7%
CC(C)C[C@@H]1N[C@H](C(=O)NCC2CC2)Cc2c[nH]c3cccc1c23	0.485%
CC(C)(C)C(=O)N[C@H]1C[C@@H](Cc2cc(CN3CCOCC3)on2)C1(C)C	-6.62%
CC(=O)N[C@H]1C[C@@H](c2nc(-c3ccc4c(c3)OCO4)no2)N(C)C1	2.89%
Cc1ccc(S(=O)(=O)Cc2noc([C@@H]3C[C@@H](O)CN3C)n2)cc1	-2.56%
c1ccc(-c2nnc([C@H]3CCN(C4CCC4)C3)o2)cc1	0.134%
COc1ccccc1CN1CC[C@H](c2nnc(-c3cncn3C)o2)C1	-1.04%
c1coc(-c2nnc([C@H]3CCN(Cc4ccc5c(c4)OCO5)C3)o2)c1	-6.68%
O=C1CO[C@H]2CN(Cc3ccc(C(F)(F)F)cc3)C[C@H]2N1	-2.56%
CC(C)(C)c1coc([C@@H]2COCCN2Cc2c[nH]cn2)n1	2.66%
CN(C)[C@@H]1CO[C@H](CNC(=O)c2cccs2)[C@H]1O	-8.01%
CC(=O)N1CCC(N[C@@H]2CO[C@H](CNC(=O)c3cccs3)[C@H]2O)CC1	4.51%
O=C(NC[C@H]1OC[C@@H](NCc2ccccn2)[C@@H]1O)N1CCOCC1	-10.1%

SMILES	cytotoxicity at 70.5 h
O=C1COC[C@H]([C@H](O)c2ccc(NC(=O)c3cccnc3)cc2)N1	-5.64%
O[C@@H]1C[C@@H](c2nc(-c3ccc(OC(F)(F)F)cc3)no2)N(CC2CC2)C1	-4.09%
CCNC(=O)NC[C@@H]1C=C(C)[C@H](CC(=O)NCCN(C)C)C[C@H]1C(C)C	-0.736%
Cn1cncc1-c1nnc([C@H]2CCN(Cc3cccnc3)C2)o1	-2.71%
Cn1ccnc1CN1C(=O)CO[C@H]2CN(CCCc3ccccc3)C[C@H]21	-1.68%
CN(C)[C@@H]1CO[C@H](CNC(=O)c2ccccc2)[C@H]1O	-8.77%
CC(=O)N1CCC(N2CCN3C(=O)N(Cc4ccccn4)C[C@H]3C2)CC1	-1.05%
N#Cc1ccc(C(=O)N2CCOC[C@H](Oc3cnccn3)C2)cc1	-0.682%
COc1ccc(O[C@H]2COCCN(Cc3cccc4c3OCO4)C2)cc1	3.63%
CCNC(=O)NC[C@H]1Cn2c(-c3ccccc3)cnc2CO1	-3.79%
FC(F)(F)Oc1cccc(CNC[C@H]2Cn3ccnc3CO2)c1	0.704%
CC(C)N1CCOC[C@H]1c1nc(-c2ccncc2)c[nH]1	-1.74%
c1cc(-c2c[nH]c([C@@H]3COCCN3CC3CC3)n2)ccn1	-1.9%
COC(=O)[C@H]1CN(S(C)(=O)=O)CCN1S(C)(=O)=O	-2.09%
CN(C)[C@@H]1CO[C@H](CNC(=O)C2CCCC2)[C@H]1O	6.3%
CC(C)N[C@@H]1CO[C@H](CNC(=O)c2cccs2)[C@H]1O	1.83%
CC[C@H]1CN(C(=O)c2cccnc2)CC[C@H]1CC(=O)NC1CC1	-4.36%
COCC(=O)N1CCN(C(=O)c2cccs2)C[C@H]1C(=O)OC	1.41%
O=C(O)C[C@@H]1CCN(C(=O)C2CCCC2)C[C@@H]1CCN1CCCCC1	-1.16%
CC(=O)N1CC[C@H]2CC(=O)N(C3CCCCC3)CC[C@H]2C1	-2.68%
CC(C)(O)c1cn(C[C@H]2C[C@@H]3CCN2C[C@@H]3C(=O)N2CCOCC2)nn1	-1.36%
CC[C@H]1CN2CC[C@H]1C[C@@H]2CNC(=O)Nc1cccc(C(F)(F)F)c1	-3.6%

SMILES	cytotoxicity at 70.5 h
COC(=O)[C@@H]1CN(C(=O)NC(C)C)CCN1S(=O)(=O)c1ccccc1	-2.94%
Cn1nc(-c2cccs2)cc1[C@H]1CN2CC[C@H]1C[C@@H]2CNS(C)(=O)=O	-6.43%
Cc1oncc1C(=O)N1CC2CC1(C(=O)N1CCCC1)C2	8.06%
CN(C)C(=O)C1CCC2(CCN(Cc3ccc4ccccc4n3)CC2)O1 (configuration not stated)	-8.67%
c1coc(CN2CCC3(CC2)COC(COCC2CCOCC2)C3)c1 (configuration not stated)	-12.1%
CCN1C[C@H]2CCN(Cc3ccncc3)C(=O)[C@@H]2C1	-12%
CN(C)C(=O)CN1CCC2(CCN(C(=O)N3CCCC3)CC2)C1=O	-3.29%
CN(C)C(=O)CN1CCC2(CCN(S(C)(=O)=O)CC2)C1=O	-0.161%
CCN1C(=O)CC[C@]12CC[C@@H](NC(=O)c1cnccn1)CC2	12.9%
Cc1cccc(CN2CCC23CCCNC3)n1 (configuration not stated)	-9.59%
NC(=O)NCC(=O)N1C[C@H]2CC[C@@H]1CN(Cc1ccccc1)C2	1.42%
CN1CC(c2ccccc2)CC2(CCN(CC(=O)N(C)C)CC2)C1 (configuration not stated)	-8.78%
O=C(c1ccc[nH]1)N1C[C@H]2CC[C@@H]1CN(c1ncccn1)C2	-8.11%
O=C(c1cccc(S(=O)(=O)NCCCc2ncc[nH]2)c1)N1CCOCC1	-9.14%
CC[C@@]1(O)CCN(C(=O)c2ccsc2)C[C@H]1O	-7.08%
CC(C)(C)c1cc(CN2CC[C@@H](NC(=O)c3cccnc3)[C@H](O)C2)n[nH]1	0.738%
N#Cc1c(SCCN2CCOCC2)sc2c(O)cc(O)nc12	17.3%
N#Cc1c(SCCN2CCCCCC2)sc2c(O)cc(O)nc12	12.1%
CCC(NC(=O)c1c(C(=O)O)cnn1C)c1ccc(C)cc1C (configuration not stated)	-3.68%
CC(C)c1cc(CSCCC(=O)O)no1	-4.33%
Cc1c2c(C(F)F)cc(SCC(=O)O)nc2nn1C	-2.86%
CCn1cc(N)c(-c2nnc3n2CCC3)n1	13.1%

SMILES	cytotoxicity at 70.5 h
CCOc1ccccc1C(=O)Nn1c(C)cc(C)cc1=O	-6.5%
Cn1ncc(NC(=O)c2noc3c2CCCC3)c1C(N)=O	-5.51%
CCN(CC)C1COc2c(cc(Br)c(C)c2Br)C1=O (configuration not stated)	-7.72%
CCN(CC)C1COc2ccc(Br)cc2C1=O (configuration not stated)	-5.6%
CCc1c(O)n(C(C)CC)c(SCC(=O)c2ccccc2)nc1=O (configuration not stated)	-8.65%
Cn1cc(C(=O)NC(Cn2cccn2)C(C)(C)C)cn1 (configuration not stated)	2.11%
Cc1cn(Cc2ccc(F)c(F)c2)nc1N	19.5%
O=C(CSc1nccc(-c2ccc3c(c2)OCO3)n1)N1CCOCC1	-1.22%
CCn1cc(-c2cc(C(F)F)n3nc(CCC(=O)O)nc3n2)cn1	-2.48%
Cc1cn(Cc2ccc(F)cc2)nc1N	-1.4%
Cc1ccc(Cn2cc(C)c(N)n2)cc1	22.1%
CCC1(c2ccc(NS(=O)(=O)N(C)C)cc2)CCC(=O)NC1=O (configuration not stated)	-2.76%
Cn1nnnc1SCC1COc2ccccc2O1 (configuration not stated)	0.146%
O=C1c2cc(Br)cc(Br)c2OCC1(CN1CCCC1)CN1CCCC1	-1.34%
CC(=O)c1ccc(OCC(C)O)cc1O (configuration not stated)	5.87%
CCOC(=O)COc1ccc(C(C)=O)c(O)c1	28.9%
Cn1c(=O)c2cc(C(=O)NCCOCC(F)(F)F)ccc2n(C)c1=O	25.9%
COc1cc(CNc2cnn(CC(F)F)c2)ccc1O	26.6%
COCc1cc(CNc2cnn(CC(F)F)c2)ccc1OC	1.97%
COc1cccc(CNc2cnn(CC(F)F)c2)c1	3.29%
COc1ccc(CNc2cnn(CC(F)F)c2)cc1	-0.452%
CCn1cc(CNCc2ccc(C(=O)OC)cc2)c(C)n1	-0.911%

SMILES	cytotoxicity at 70.5 h
COc1ccc(CNCc2cn(C)nc2C)cc1	-2.32%
COC(=O)N1CC(C)=C(C)CN1C(=O)Nc1ccc(Cl)c(Cl)c1	4.31%
Cc1cc(-n2cncn2)n2ncnc2n1	-2.11%
NC(=O)c1c[nH]nc1NC(=O)c1ccc(Cl)cc1	-3.88%
Cc1c(O)oc(-c2ccc(Br)cc2)nc1=O	53.6%
CCn1cc(S(=O)(=O)N(C)Cc2c(Br)cnn2CC)c(C)n1	1.71%
CCCn1ncc2c(C(=O)Nc3n[nH]c(SC)n3)cc(C3CC3)nc21	5.71%
CNc1cncc(C2CCCN2C(=O)c2ccc3oc(=O)n(C)c3c2)n1 (configuration not stated)	17.9%
CNC(=O)[C@@H](c1ccccc1F)N1CCC[C@H]1C(=O)NC1CCCC1	-5.2%
CNC(=O)C1(N2CCC[C@H]2C(=O)NC2CC2)CCCCC1	-3.89%
CNC(=O)[C@@H](c1ccccc1OC)N1CCC[C@H]1C(=O)NC1CC1	-1.71%
CNC(=O)[C@@H](C1CCCCC1)N1CCC[C@H]1C(=O)N(C)CCN(C)C	-4.67%
CNC(=O)[C@@H](CC(C)C)N1CCC[C@H]1C(=O)N(C)Cc1cccnc1	-6.49%
CNC(=O)[C@@H](c1ccccc1OC)N1CCC[C@H]1C(=O)NCCN(C)C	-5.36%
Cc1nc(C)c(CNC[C@@]2(COc3cccnc3)C[C@@H](O)[C@@H](O)C2)s1	-4.67%
CC(C)NC(=O)CC1CC2(CCN(CC3CC3)CC2)Oc2ccccc21 (configuration not stated)	15.7%
Cn1cccc1C(=O)N1C[C@H]2CN(Cc3cccs3)C[C@H]2C1	-4.47%
COCC(=O)N1CCC2(CC1)C(=O)N(Cc1cccnc1)CCN2C	28.3%
CCC(=O)N1CCC2(CC1)C(=O)N(Cc1cccnc1)CCN2C	-3.61%
